Source: US20150150810A1, “TABLETS FOR COMBINATION THERAPY” (Gilead Sciences, Inc., priority 2009, published 2015)

Key:
[1] = Chemical stability of Formula IV in tablet combinations; type: physicochemical
Excerpt: Additionally, improper combinations of the compounds of Formula I, II, III, or IV in a bilayer tablet will also compromise the chemical stability of Formula IV. For example, Formula IV in the presence of silicon dioxide from the Formula II formulation will decompose Formula IV; and Formula IV in the in the presence of sodium lauryl sulphate from the Formula I formulation will decompose Formula IV.

[2] = Pharmacokinetic dose-ranging study of the compound of Formula II; type: in vivo; conditions: 100 mg dose
Method: A pharmacokinetic dose-ranging study involving the compound of Formula II was conducted. Doses for the compound of Formula II for the dose-ranging study included 50 mg, 100 mg and 200 mg.

[3] = Pharmacokinetic study of fixed-dose combinations of Formula I/Formula II/Formula III/Formula IV; type: in vivo; conditions: mean (CV %); for Cmax / AUC: in vivo
Method: A pharmacokinetic study involving two fixed-dose combinations of the compounds of Formula I/Formula II/Formula III/Formula IV was also conducted. Doses for the fixed-dose combination of the compounds of Formula I/Formula II/Formula III/Formula IV were 150 mg/100 mg/200 mg/300 mg (Dose A) and 150 mg/150 mg/200 mg/300 mg (Dose B) respectively. Pharmacokinetic data for the compound of Formula II from the study involving the two fixed dose combinations (Dose A and Dose B) is provided in the following table.

[4] = in vivo, n = 11, arithmetic mean
[5] = Dose A: 150 mg/100 mg/200 mg/300 mg, n = 43
[6] = Dose B: 150 mg/150 mg/200 mg/300 mg, n = 42

Row | CL/F ([2]; n = 11, arithmetic mean) | T1/2 ([2]; n = 11, median) | AUC [2, 4] | Cmax [2, 4] | Ctau [3, 5] | Ctau [3, 6] | Cmax [3, 5] | AUC ([3]; Dose A: Formula I/II/III/IV 150 mg/100 mg/200 mg/300 mg, n = 43) | Cmax [3, 6] | AUC ([3]; Dose B: Formula I/II/III/IV 150 mg/150 mg/200 mg/300 mg, n = 42) | SMILES | chemical stability of Formula IV ([1]; Formula I, II, III and IV combined in a mixture as mono layer tablet) | chemical stability of Formula IV ([1]; in the presence of silicon dioxide from the Formula II formulation) | chemical stability of Formula IV ([1]; in the presence of sodium lauryl sulphate from the Formula I formulation)
1 | – | – | – | – | – | – | – | – | – | – | CC(C)OC(=O)OCOP(=O)(CO[C@H](C)Cn1cnc2c(N)ncnc21)OCOC(=O)OC(C)C.O=C(O)/C=C/C(=O)O [Formula IV, tenofovir disoproxil fumarate] | compromises the chemical stability | decompose | decompose
2 | 33.2 L/h | 3.12 h | 3440 ng·h/mL | 563 ng/mL | 10.8 (83.6) ng/mL | 23.3 (103) ng/mL | 855 ng/mL | 5150 ng·h/mL | 1570 ng/mL | 10400 ng·h/mL | CC(C)c1nc(CN(C)C(=O)N[C@@H](CCN2CCOCC2)C(=O)N[C@H](CC[C@H](Cc2ccccc2)NC(=O)OCc2cncs2)Cc2ccccc2)cs1 [Formula II] | – | – | –
